Where two headings read alike, the source gives them in different places.
Experiments:
FK506-induced nephritis = assay: Prevention of Experimental FK506-induced Nephritis by Cyclic Nucleotide Regulating Drugs (b); format: in vivo, male Sprague-Dawley rats; details: 20 mg/kg intramuscularly 30 minutes before FK506 10 mg/kg/day, 14 days
Experimental: (b) Prevention of Experimental FK506-induced Nephritis by Cyclic Nucleotide Regulating Drugs
FK506 was administered orally to male Sprague-Dawley rats (body weights; 292-329 g) fed with low sodium diet (0.05% Sodium) in a daily dose of 10 mg/kg/day for 14 days. FK506 was provided in a solid dispersion formulation and dissolved in distilled water to a final concentration of 2 mg/ml. Papaverine was dissolved in saline to 5 mg/ml. Dipyridamole (i.v. formulation; 5 mg/ml) was purchased from Dainippon Pharmaceutical Co., Ltd. Papaverine (20 mg/kg) or dipyridamole (20 mg/kg) was administered intramuscularly 30 minutes before FK506 dosing. After the final dosing of FK506, 24-hours urine was collected for urinalysis. Blood was withdrawn from the abdominal aorta under ether anesthesia 24 hours after final dosing of FK506, and plasma was separated for biochemical analysis and plasma renin activity measurements. The kidney was removed from each animal and was fixed with in 10% formalin solution for histological analysis.

cGMP-PDE = target: T1, cGMP-PDE (Homo sapiens, UniProt O76074); assay: cGMP-phosphodiesterase (PDE) Assay (human platelets); format: biochemical
T1 construct: cGMP-PDE was separated from other isozymes in human platelets; from tissue; host or cells: human platelets
Experimental: cGMP-phosphodiesterase (PDE) Assay
cGMP-PDE was separated from other isozymes in human platelets by a modification of the method of Thompson et. al. (Cyclic Nucleotide Phosphodiesterase (PDE), in Methods of Enzymatic analysis, Vol 4, p127-234, 1984). In enzyme inhibition assays, the test compounds were dissolved in 10% DMSO and then diluted with assay buffer (50 mM Tris-HCl, pH 8.0, 0.1 mM dithiothreitol, 2 mM EGTA and 10 u/ml snake venom), at final concentrations ranging from 10^-10 to 10^-6 M. Assays were performed at 0.1 μM substrate ([^3 H]-cGMP) concentration, at 30° C. for 10 minutes using enzyme dilutions which gave 10-20% hydrolysis of substrate. Each assay was initiated by addition of substrate and terminated by addition of anion exchange resin (Dowex 1-X8, 25 μg/mg) followed by centrifugation for 10 minutes (3000 rpm, at 4° C.). Radioactivity of supernatant (^3 H-GMP) was assayed by liquid scintillation counting.

[1] = system: aorta (spirally cut strips); assay: Smooth Muscle Relaxant: noradrenaline-contracted rat aorta strips; parameters: species or system male Wistar rats; details: contraction by noradrenaline 1 μM, 37° C.
Experimental: The aorta were carefully removed from male Wistar rats, cleaned of fat and extraneous tissue. Spirally cut strips of the aorta were placed in a 25 ml organ bath containing Tyrode solution of the following composition (mM); NaCl, 137; KCl, 2.7; CaCl2, 1.8; NaH2 PO4, 0.4; NaHCO3, 12.0; MgSO4, 1.1; glucose, 5.6. The bath was maintained at 37° C. and bubbled with 95% O2 and 5% CO2. The spirally cut strip was stretched to a resting force of 1.0 g, and the isometric contraction was recorded via a force development transducer on an ink writing recorder. Tissues were equilibrated for 60 minutes before contraction was induced by noradrenaline (NA, 1 μM). The test compounds were cumulatively added to organ bath in increasing concentrations ranging from 10^-8 to 10^-5 M, after maximum stable constriction to NA had been achieved.

Cyclosporin nephritis = assay: Cyclosporin Nephritis Model; format: in vivo, Spontaneously hypertensive rats; details: 3.2 mg/kg orally twice a day for two weeks; cyclosporin 50 mg/kg daily
Experimental: Cyclosporin Nephritis Model
Spontaneously hypertensive rats weighing 250-300 g were used. Cyclosporin dissolved in olive-oil containing 5% ethanol was given orally to the animals in a daily dose 50 mg/kg for 2 weeks. After the last dosing of cyclosporin, 24-hours urine was collected for urinalysis. Blood was withdrawn from the abdominal aorta under ether anesthesia 24 hours after the last dosing of cyclosporin, and plasma was separated by centrifugation for biochemical analysis. The animal were bled to death and kidneys were removed for histopathological examination.
The each test compound (3.2 mg/kg) was dissolved in PEG 400 and given orally by the volume of 1 ml/kg twice a day for two weeks.
(§1) Biochemistry and urinalysis: Urine volume, plasma creatinine, urine creatinine, blood urea nitrogen, plasma sodium, urine sodium, plasma potassium and urine potassium, were measured with an autoanalyzer (TBA-20R Toshiba, OM-6020 Daiichi Kagaku).
Histopathology: The kidneys were fixed in phosphate-buffered 10% formalin and its paraffin specimens were prepared and these sections were stained with hematoxylin.

FK506 nephritis = assay: FK506 Nephritis Model (a); format: in vivo, Spontaneously hypertensive rats; details: orally twice a day for two weeks; FK506 18 mg/kg daily for 1 week
Experimental: (a) Spontaneously hypertensive rats weighing 250-300 g were used. FK506 dissolved in olive-oil containing 5% ethanol was given orally to the animals in a daily dose 18 mg/kg for 1 week. After the last dosing of FK506, 24-hours urine was collected for urinalysis. Blood was withdrawn from the abdominal aorta under ether anesthesia 24 hours after the last dosing of FK506, and plasma was separated by centrifugation for biochemical analysis.
The each test compound was dissolved in PEG 400 and given orally by the volume of 1 ml/kg twice a day for two weeks.
as §1

[2] = system: Coronary vasospasm induced with vasopressin; assay: Vasopressin Induced-vasospasm Model (ST segment depression); format: in vivo, Male Donryu rats; details: 10 mg/kg orally 30 minutes before vasopressin 0.2 iu/kg
Experimental: Vasopressin Induced-vasospasm Model
Male Donryu rats, weighing 160-200 g, were anesthetized intraperitoneally with sodium pentobarbital (60 mg/kg) 15 minutes before intravenous administration of vasopressin, and the femoral vein was cannulated with polyethylene tubing (diameter 0.8 mm). Coronary vasospasm was induced with vasopressin (0.2 iu/kg) dissolved in saline through the cannula in the femoral vein. The each test compound (10 mg/kg) was administered orally 30 minutes before the administration of vasopressin. The standard limb lead II of the electrocardiogram was recorded with an electrocardiograph. The depression of ST segment was measured as the difference in the amplitudes of the ST segment after and just before the administration of vasopressin. The amplitudes of ST segment were measured at intervals of 0.5 minutes for 5 minutes after administration of vasopressin.

[3] = system: Vascular smooth muscle cells (vSMCs); assay: vSMC Proliferation ([3H]-thymidine, PDGF-stimulated); format: cell-based, male Wistar rats; details: Rattus norvegicus, PDGF 10 ng/ml stimulation
Experimental: Vascular smooth muscle cells (vSMCs) were prepared from explants of the thoracic aorta of 10 week old male Wistar rats by a modification of the method of Ross (J. Cell Biol., 50: 172, 1971). They were cultured in DMEM containing 10% fetal calf serum, 1% penicillin G and 1% streptomycin at 37° C. in a 95% air, 5% CO2 humidified atmosphere. vSMCs were seeded in 24 well plates and cultured in the presence of 10% fetal calf serum for 3 days. Cell growth then was arrested by transfer to serum free DMEA. After 24 hours, each test compound or vehicle was added to medium for 1 hour, and then cells were stimulated by PDGF (10 ng/ml). After 24 hours of additional incubation, [^3 H]-thymidine (1 μCi/ml) was added during the final 4 hours of incubation time, and trichloracetic acid insoluble radioactivity was assayed by liquid scintillation counting.

[4] = system: Genital Grooming and Penile Erection; assay: Effect on Genital Grooming and Penile Erection in Male Mice; format: in vivo, male ICR mice; details: oral; observed for one hour; n=10
Experimental: (d) Effect of Tested Compound on Genital Grooming and Penile Erection in Male Mice
Eight weeks old male ICR mice were housed under standard conditions of temperature, lighting and water supply before the experiment.
The test compound was dissolved in PEG400. After oral administration of the test compound, each mouse was transferred to an individual cage.

[5] = Toxicity by repetitive oral administration; format: in vivo, SD rat; details: 32 mg/kg once a day orally, 14 consecutive days
[6] = 0.1 μM [3H]-cGMP, 30° C., 10 minutes, read-out: IC50

| SMILES | IC50 (cGMP-PDE) | IC50 [1] | inhibiting activity (depression of ST segment) [2] | further results |
| --- | --- | --- | --- | --- |
| COc1ccc(Cc2nccc3cc(OC)c(OC)cc23)cc1OC [Papaverine] | – | – | – | recovery in a measure of blood urea nitrogen (FK506-induced nephritis): more than 50%; recovery in a serum creatinine (FK506-induced nephritis): more than 50%; renofunction of FK506 dosed rats (FK506-induced nephritis): significantly improved renofunction |
| CCCc1c(C(=O)C(C)C)c2ccc(C(N)=O)cc2n1Cc1ccccc1[N+](=O)[O-] [37-(7), 3-Isobutyryl-1-(2-nitrobenzyl)-2-propylindole-6-carboxamide] | < 100 nM | < 100 nM | – | – |
| CCCc1c(C(=O)C(C)C)c2ccc(C(N)=O)cc2n1Cc1ccccc1C [37-(4), 3-Isobutyryl-1-(2-methylbenzyl)-2-propylindole-6-carboxamide] | < 100 nM | < 100 nM | – | – |
| OCCN(CCO)c1nc(N2CCCCC2)c2nc(N(CCO)CCO)nc(N3CCCCC3)c2n1 [dipyridamole, Dipyridamole] | – | – | – | recovery in a measure of blood urea nitrogen (FK506-induced nephritis): more than 50%; recovery in a serum creatinine (FK506-induced nephritis): more than 50%; renofunction of FK506 dosed rats (FK506-induced nephritis): significantly improved renofunction |
| CCCc1nn(C)c2c(=O)[nH]c(-c3cc(S(=O)(=O)N4CCN(C)CC4)ccc3OCC)nc12 [compound (IX), reference compound] | – | – | – | recovery in a measure of blood urea nitrogen (Cyclosporin nephritis): more than 50%; recovery in a measure of creatinine clearance (ml/kg/min) (Cyclosporin nephritis): more than 40% |
| CCCc1c(C(=O)C2CC2)c2ccc(C(N)=O)cc2n1Cc1cc2c(cc1Cl)OCO2 [73-(33), 1-(6-Chloro-3,4-methylenedioxybenzyl)-3-cyclopropanecarbonyl-2-propylindole-6-carboxamide] | < 100 nM | < 100 nM | – | – |
| O=C(O)C1CCN(c2nc(NCc3ccc4c(c3)OCO4)c3cc(Cl)ccc3n2)CC1 [compound (VIII), reference compound] | – | – | – | recovery in a measure of blood urea nitrogen (Cyclosporin nephritis): more than 50%; recovery in a measure of creatinine clearance (ml/kg/min) (Cyclosporin nephritis): more than 40%; recovery in a measure of creatinine clearance (ml/kg/min) (FK506 nephritis): more than 45%; recovery in urinary sodium excretion (FK506 nephritis): more than 50% |
| CCCc1c(C(=O)C2CCCC2)c2ccc(C(N)=O)cc2n1Cc1ccccc1Cl [73-(36), 1-(2-Chlorobenzyl)-3-cyclopentanecarbonyl-2-propylindole-6-carboxamide] | < 100 nM | < 100 nM | – | – |
| CCc1c(C(=O)C(C)C)c2ccc(C(N)=O)cc2n1Cc1ccccc1Cl [37-(12), 1-(2-Chlorobenzyl)-2-ethyl-3-isobutyrylindole-6-carboxamide] | < 100 nM | < 100 nM | more than 50% | – |
| CCCc1c(C(=O)c2ccccc2)c2ccc(C(N)=O)cc2n1Cc1ccccc1Cl [38-(1), 3-Benzoyl-1-(2-chlorobenzyl)-2-propylindole-6-carboxamide] | – | – | more than 50% | – |
| CCCc1c(C(C)=O)c2ccc(C(N)=O)cc2n1Cc1ccccc1Cl [Example 3, 3-acetyl-1-(2-chlorobenzyl)-2-propylindole-6-carboxamide] | < 100 nM | – | more than 50% | IC50 [3]: < 100 nM; recovery in a measure of blood urea nitrogen (Cyclosporin nephritis): more than 50%; recovery in a measure of creatinine clearance (ml/kg/min) (Cyclosporin nephritis): more than 40% |
| CC(C)Cc1c(C(=O)C(C)C)c2ccc(C(N)=O)cc2n1Cc1ccccc1Cl [Example 12, 1-(2-Chlorobenzyl)-2-isobutyl-3-isobutyrylindole-6-carboxamide] | < 100 nM | < 100 nM | more than 50% | – |
| CCC(=O)c1c(CC)n(Cc2ccccc2Cl)c2cc(C#N)ccc12 [Example 42, 1-(2-chlorobenzyl)-2-ethyl-3-propionylindole-6-carbonitrile] | < 100 nM | – | more than 50% | – |
| CCc1c(C(=O)C(C)C)c2ccc(C#N)cc2n1Cc1ccccc1Cl [Example 43, 1-(2-Chlorobenzyl)-2-ethyl-3-isobutyrylindole-6-carbonitrile] | < 100 nM | < 100 nM | more than 50% | – |
| CCCc1c(C(=O)COC)c2ccc(C(N)=O)cc2n1Cc1cc2c(cc1Cl)OCO2 [Example 27-(8), 1-(6-Chloro-3,4-methylenedioxybenzyl)-3-methoxyacetyl-2-propylindole-6-carboxamide] | < 100 nM | < 100 nM | – | IC50 [3]: < 100 nM; increase of the frequencies of genital grooming (average) [4]: 266%; lengthening of the duration of penile erection (average) [4]: 171%; death on repetitive oral administration [5]: the dead at dose of 32 mg/kg once a day for 14 consecutive days could not be observed |
| CCCc1c(C(=O)C(C)C)c2ccc(C(N)=O)cc2n1Cc1ccc(F)cc1Cl [37-(9), 1-(2-Chloro-4-fluorobenzyl)-3-isobutyryl-2-propylindole-6-carboxamide] | < 100 nM | < 100 nM | – | – |
| CCCc1c([N+](=O)[O-])c2ccc(C(=O)OC)cc2n1Cc1ccccc1Cl [Example 72, methyl 1-(2-chlorobenzyl)-3-nitro-2-propylindole-6-carboxylate] | – | < 100 nM | – | IC50 (cGMP-PDE; [6]): < 100 nM |
| NC(=O)c1ccc2c3c(n(Cc4cc5c(cc4Cl)OCO5)c2c1)C(=O)CCC3 [75-(8), 9-(6-Chloro-3,4-methylenedioxybenzyl)-8-oxo-5,6,7,8-tetrahydrocarbazole-2-carboxamide] | – | < 100 nM | – | IC50 (cGMP-PDE; [6]): < 100 nM |
